Measured values as given in the NIST ThermoML archive (doi:10.1021/je050183a).

Columns and labels:
[1] = xn = mol fraction of the nth substance listed; conditions: 101 kPa, Liquid; for viscosity: Capillary tube (Ostwald / Ubbelohde) method; for speed of sound: Linear variable-path acoustic interferometer; for mass density: Pycnometric method
[2] = refractive index (Na D-line) (dimensionless); xn = mol fraction of the nth substance listed; conditions: 298.15 K, 101 kPa, Liquid, Standard Abbe refractometry

CC1OC(C)OC(C)O1 (stereo unspecified) [2,4,6-trimethyl-1,3,5-trioxane] + CCOC(=O)OCC
[1]
Conditions	mass density, 288.15 K [kg/m3]	mass density, 298.15 K [kg/m3]	speed of sound, 288.15 K [m/s]	speed of sound, 298.15 K [m/s]	viscosity, 288.15 K [mPa·s]	viscosity, 298.15 K [mPa·s]
x1 = 0.0215	980.99	969.57	1224	1173.8	0.877	0.756
x1 = 0.0425	981.54	969.99	1222.6	1174.2	0.885	0.763
x1 = 0.0615	982.03	970.36	1221.4	1174.5	0.892	0.768
x1 = 0.0816	982.54	970.76	1220.3	1174.8	0.899	0.774
x1 = 0.1036	983.08	971.19	1219.1	1175	0.906	0.779
x1 = 0.1911	985.12	972.92	1215.7	1175.6	0.931	0.798
x1 = 0.317	987.74	975.41	1213.4	1175.3	0.959	0.819
x1 = 0.4272	989.8	977.57	1213.2	1174.4	0.985	0.836
x1 = 0.5162	991.35	979.28	1213.8	1173.5	1.011	0.854
x1 = 0.608	992.87	981	1214.8	1172.6	1.047	0.878
x1 = 0.7032	994.41	982.74	1215.7	1171.9	1.098	0.913
x1 = 0.7984	995.94	984.41	1216.2	1171.5	1.167	0.962
x1 = 0.8957	997.54	986.04	1216.7	1171.8	1.26	1.028
x1 = 1	999.69	988.35	1217.7	1174.5	1.374	1.107

[2]
Conditions	refractive index
x1 = 0.0215	1.3835
x1 = 0.0425	1.384
x1 = 0.0615	1.3844
x1 = 0.0816	1.3848
x1 = 0.1036	1.3853
x1 = 0.1911	1.3873
x1 = 0.317	1.3901
x1 = 0.4272	1.3926
x1 = 0.5162	1.3945
x1 = 0.608	1.3963
x1 = 0.7032	1.3982
x1 = 0.7984	1.3999
x1 = 0.8957	1.4015
x1 = 1	1.4029

CC1OC(C)OC(C)O1 (stereo unspecified) [2,4,6-trimethyl-1,3,5-trioxane] + COC(=O)OC
[1]
Conditions	mass density, 288.15 K [kg/m3]	mass density, 298.15 K [kg/m3]	speed of sound, 288.15 K [m/s]	speed of sound, 298.15 K [m/s]	viscosity, 288.15 K [mPa·s]	viscosity, 298.15 K [mPa·s]
x1 = 0.0204	1074.19	1060.99	1242.2	1197.4	0.66	0.59
x1 = 0.0409	1071.96	1058.89	1242.3	1197.3	0.673	0.6
x1 = 0.059	1070.03	1057.07	1242.4	1197.3	0.684	0.609
x1 = 0.0845	1067.35	1054.53	1242.4	1197	0.699	0.62
x1 = 0.1091	1064.81	1052.11	1242.3	1196.8	0.713	0.63
x1 = 0.2258	1053.37	1041.01	1240.4	1194.6	0.77	0.673
x1 = 0.3012	1046.5	1034.2	1238.4	1192.7	0.803	0.697
x1 = 0.3994	1038.14	1025.83	1235	1189.6	0.844	0.727
x1 = 0.494	1030.68	1018.35	1231.2	1186	0.887	0.757
x1 = 0.5906	1023.62	1011.31	1227.2	1182.3	0.936	0.793
x1 = 0.696	1016.52	1004.26	1223.1	1178.5	1.002	0.84
x1 = 0.808	1009.63	997.47	1219.3	1175.3	1.091	0.906
x1 = 0.9289	1002.87	991.2	1216.7	1173.1	1.214	0.998
x1 = 1	999.69	988.35	1217.7	1174.5	1.374	1.107

[2]
Conditions	refractive index
x1 = 0.0204	1.3673
x1 = 0.0409	1.3686
x1 = 0.059	1.3696
x1 = 0.0845	1.3711
x1 = 0.1091	1.3725
x1 = 0.2258	1.3786
x1 = 0.3012	1.382
x1 = 0.3994	1.386
x1 = 0.494	1.3894
x1 = 0.5906	1.3925
x1 = 0.696	1.3956
x1 = 0.808	1.3985
x1 = 0.9289	1.4014
x1 = 1	1.4029
